{"source": "patent US9260419B2", "about": "“Polymorphic salt of a metap-2 inhibitor and methods of making and using same” (Zafgen, Inc., priority 2012, dated 2016)", "key": {"[1]": {"test": "challenge stability study, stability-indicating HPLC assay and physical description", "type": "physicochemical", "settings": "sealed vials", "description": "A challenge stability study was carried out with amorphous and crystalline forms. Samples were stored in sealed vials and stored at room temperature (25° C.) and 40° C. Samples were assayed at various times with a stability-indicating HPLC assay. Retained potency was determined and physical description was observed."}, "[2]": {"test": "relative stability of crystalline forms", "type": "physicochemical"}, "[3]": {"settings": "25° C., 8 days, hemioxalate salt"}, "[4]": {"settings": "25° C., 12 days, hemioxalate salt"}, "[5]": {"settings": "40° C., 5 days, hemioxalate salt"}}, "note": "Structures can show the parent of a compound that is named as a salt."}
{"smiles": "CO[C@@H]1[C@H](OC(=O)/C=C/c2ccc(OCCN(C)C)cc2)CCC2(CO2)[C@H]1C1(C)OC1CC=C(C)C", "note": "(some centres unmarked) [Amorphous, 6-O-(4-dimethylaminoethoxy)cinnamoyl fumagillol hemioxalate salt]", "values": [{"measurement": "% Purity (by peak area)", "setting": "[1]; [3]", "result": 86.58, "unit": "%"}, {"measurement": "Physical Description", "setting": "[1]; [3]", "result": "White powder"}, {"measurement": "% Purity (by peak area)", "setting": "[1]; [4]", "result": 83.88, "unit": "%"}, {"measurement": "Physical Description", "setting": "[1]; [4]", "result": "White powder"}, {"measurement": "% Purity (by peak area)", "setting": "[1]; [5]", "result": 86.91, "unit": "%"}, {"measurement": "Physical Description", "setting": "[1]; [5]", "result": "White powder"}, {"measurement": "Physical Description", "setting": "[1]; Time zero", "result": "Free flowing"}, {"measurement": "% Purity (by peak area)", "setting": "[1]; Time zero, hemioxalate salt", "result": 94.98, "unit": "%"}]}
{"smiles": "CO[C@@H]1[C@H](OC(=O)/C=C/c2ccc(OCCN(C)C)cc2)CCC2(CO2)[C@H]1C1(C)OC1CC=C(C)C", "note": "(some centres unmarked) [Crystalline, 6-O-(4-dimethylaminoethoxy)cinnamoyl fumagillol hemioxalate salt]", "values": [{"measurement": "% Purity (by peak area)", "setting": "[1]; [3]", "result": 97.86, "unit": "%"}, {"measurement": "Physical Description", "setting": "[1]; [3]", "result": "Free flowing"}, {"measurement": "% Purity (by peak area)", "setting": "[1]; [4]", "result": 97.84, "unit": "%"}, {"measurement": "Physical Description", "setting": "[1]; [4]", "result": "Free flowing"}, {"measurement": "% Purity (by peak area)", "setting": "[1]; [5]", "result": 97.72, "unit": "%"}, {"measurement": "Physical Description", "setting": "[1]; [5]", "result": "Free flowing"}, {"measurement": "Physical Description", "setting": "[1]; Time zero", "result": "Free flowing"}, {"measurement": "% Purity (by peak area)", "setting": "[1]; Time zero, hemioxalate salt", "result": 97.91, "unit": "%"}]}
{"smiles": "CO[C@@H]1[C@H](OC(=O)/C=C/c2ccc(OCCN(C)C)cc2)CCC2(CO2)[C@H]1C1(C)OC1CC=C(C)C", "note": "(some centres unmarked) [Form B, 6-O-(4-dimethylaminoethoxy)cinnamoyl fumagillol hemioxalate]", "values": [{"measurement": "stability relative to Form A", "setting": "[2]", "result": "metastable relative to Form A"}]}
